Experimental data as given in US11266664B2, “Use of homosalate and octyl salicylate to treat multiple sclerosis” (Wisconsin Alumni Research Foundation, priority 2016, dated 2022).
“Also recorded” adds a separate entry of the source.

What was measured:
[1] = Body weight of EAE mice, weighed weekly; assay type: in vivo; conditions: for Body weight at three doses: topical 0.5, 1.0, 1.5 g/kg, all treatments except homosalate 0.5 g/kg (FIG. 8B); for Body weight of EAE mice given sunscreen ingredients: topical daily day 0-30, amount equal to that in the sunscreen
Description: Referring to FIGS. 2A and 2B, we analyzed different sunscreen ingredients. […] Mice were treated with ingredients (avobenzone, oxybenzone or combination) of sunscreen by topical administration daily during EAE (day 0-day 30). Sunscreen spray 200 μl was also used as a positive control. Each mouse was scored daily and weighed weekly during the experiment (30 days). Data are expressed as mean value, N=10-12/group.
Mice were treated with ingredients (homosalate, octyl salicylate or combination) of sunscreen by topical administration daily during EAE (day 0-day 30). Sunscreen spray 200 μl daily was used as a positive control. Mice were scored daily and weighed weekly. Data were expressed as mean value, N=10-12/group.

EAE mice = experiment: MOG35-55-induced EAE in mice, daily clinical score (0-5); assay type: in vivo; conditions: for Mean Severity / CDI / Day of onset: as E1, mean ± SD; for Mean Severity: clinical score 0-5 averaged over the entire experiment; for CDI: clinical scores summed per animal, divided by mice per group; for Effective topical dose in a mouse model: daily; for Dose dependence of EAE suppression: topical 10, 20 and 30 μl or 0.5, 1.0, 1.5 g/kg (FIG. 8A); for Suppression of EAE (mean clinical score) by sunscreen ingredients: topical daily day 0-30, amount equal to that in the sunscreen: homosalate 1.5 g/kg, octisalate 0.5 g/kg, 12% avobenzone, 16% oxybenzone in 25 μl DMSO; for Incidence: topical daily day 0-30, homosalate 30 μl (1.5 g/kg), octisalate 10 μl (0.5 g/kg), sunscreen spray 200 μl, N=11-12, * P<0.05 vs Control; for Suppression of EAE at 1.5 g/kg: topical, ca 1.5 g/kg
Description: Animals and Diet. Female C57BL/6 mice (8-9 weeks old) purchased from Jackson Laboratory were fed a standard lab diet chow 5008 (Purina Mills, Richmond, Ind.) and maintained in the Department of Biochemistry's vivarium. The mice were exposed to 12 h light-dark cycles. All procedures were approved by the Research Animal Resources Committee of the College of Agricultural & Life Sciences, University of Wisconsin-Madison. The mice were randomly divided into groups for different treatment (12 mice/group).
Mice were shaved on their back to receive sunscreen or NBUVB radiation. The following Sunscreen cream or spray was used in our study (See Appendix A): 1. Coppertone spray (SPF 50, MSD Consumer Care, Inc., Memphis, Tenn.); 2. Coppertone water babies (SPF 50, MSD Consumer Care, Inc., Memphis, Tenn.); 3. Hawaiian Tropic (SPF 50, Energizer Personal Care, LLC, Shelton, Conn.); 4. Kiss my face (SPF 50, Kiss My Face, LLC, Gardiner, N.Y.); 5. Blue Lizard Australian Sunscreen (SPF 30, Crown Laboratories, Johnson, Tenn.); 6. Banana Boat Kids (SPF 50, Energizer Personal Care, LLC, Shelton, Conn.); 7. CoTZ Face (SPF40, CoTZ Skincare, West Norriton, Pa.). The sunscreen was applied manually to cover the shaved skin daily depending on the experimental schedule. Four main active ingredients (avobenzone; oxibenzone; homosalate; octyl salicylate) were purchased from Spectrum Chemical MFG. Corp. (New Brunswick, N.J.). The total dose of each ingredient administrated topically on each mouse skin was equal to the amount of the ingredient in the sunscreen.
In this experiment, mice were immunized with myelin oligodendrocyte glycoprotein peptide (MOG)35-55. MOG35-55 kit (EK-2110) was purchased from Hooke lab (Lawrence, Mass.). Each mouse was immunized with subcutaneous injection of 20 μl MOG35-55/CFA emulsion and intraperitoneally injection with 200 ng of pertussis toxin (List Biological Laboratories) diluted in sterile PBS. The second booster pertussis toxin injection was given 48 hours later. Each mouse was scored daily for clinical signs of EAE using the following scale: 0, no clinical disease; 1, loss of tail tone; 2, unsteady gait; 3, hind limb paralysis; 4, forelimb paralysis; 5, death.
Onset was calculated by averaging the first day when clinical signs appeared and continued for at least 2 days. Mean severity was determined by averaging the clinical scores during the entire experiment. The CDI (clinical disease index) was calculated by summing the clinical scores in each animal and divided by the number of mice per group. Statistical analyses were performed using the two-tailed Fisher exact probability test for incidence, the Mann-Whitney nonparametric u test for clinical scores, and the unpaired Student t test for all other measurements. A value of P<0.05 was considered statistically significant.
Female C57BL/6 mice (8-10 weeks old) purchased from Jackson Laboratory (Bar Harbor, Me.) were fed a standard lab chow 5008 (Purina Mills, Richmond, Ind.). The mice were exposed to 12 h light-dark cycles. In one experiment the animals were kept in darkness at all times. All procedures were approved by the Institutional Animal Care and Use Committee of the College of Agricultural & Life Sciences, University of Wisconsin-Madison.
Mice were immunized with MOG35-55 kit (EK-2110, purchased from Hooke lab (Lawrence, Mass.)). Each mouse was immunized with a subcutaneous injection of 20 μl MOG35-55/CFA emulsion and an intraperitoneal injection with 200 ng of pertussis toxin (List Biological Laboratories) diluted in sterile PBS (14). A second booster pertussis toxin injection was given 48 hours later. Each mouse was scored daily for clinical signs of EAE using the following scale: 0, no clinical disease; 1, loss of tail tone; 2, unsteady gait; 3, hindlimb paralysis; 4, forelimb paralysis; 5, death (15).
Sunscreen creams or spray applied topically to the shaved back skin of the mice daily are shown below (Table 2): 1. […]

[2] = Adverse effects of topical application; assay type: in vivo, mice
MS = conditions: studied in 1961, reference 9; cited from earlier work
rabbits = conditions: unpublished; cited from earlier work
ear edema = ear edema test in mice, reference 7; cited from earlier work

Compound	Body weight of EAE mice given sunscreen ingredients [1]	Mean Severity (EAE mice)	CDI (EAE mice)	Day of onset (EAE mice)	Effective topical dose in a mouse model (EAE mice)	Suppression of EAE (mean clinical score) by sunscreen ingredients (EAE mice)	Incidence (EAE mice)	Suppression of EAE at 1.5 g/kg (EAE mice)	Adverse effect [2]	other results
CCCCC(CC)COC(=O)c1ccccc1O (centres unmarked) [octyl salicylate, 2-ethylhexyl salicylate]	without affecting body weight	2.0 ± 0.8	20 ± 1	18 ± 3	500 mg/kg	dramatically suppress EAE development; also recorded: provide the protection; also recorded: almost completely prevented EAE development	75% (9/12)	equally active	temporary mild skin irritation	Body weight at three doses ([1]; listed as octisalate): increased the body weight; also recorded: significantly different from control; Dose dependence of EAE suppression (EAE mice; listed as octisalate): dose-dependent suppression of EAE; also recorded: dose dependent suppression of EAE; Suppression of EAE (mean clinical score) by sunscreen ingredients (EAE mice; listed as Octisalate): moderate suppression but did not reach statistical significance; Suppression of EAE (mean clinical score) by sunscreen ingredients (EAE mice; listed as octisalate): complete suppression of EAE; also recorded: significantly suppress EAE
COc1ccc(C(=O)CC(=O)c2ccc(C(C)(C)C)cc2)cc1 [avobenzone, reference compound]	no significant change in body weight					partially suppress EAE severity; also recorded: little to no significant suppression of EAE; also recorded: fail to suppress EAE; also recorded: slightly suppressed disease progression				Suppression of EAE (mean clinical score) by sunscreen ingredients (EAE mice; listed as Avobenzone): partially suppress EAE severity
CC(=O)Oc1ccccc1C(=O)O [aspirin, acetylsalicylic acid]										Relationship between aspirin and MS, control vs treated group (MS): without a significant difference between the control and treated group
CC1CC(OC(=O)c2ccccc2O)CC(C)(C)C1 (centres unmarked) [Homosalate, 3,3,5-trimethylcyclohexyl 2-hydrobenzoate]	without affecting body weight	1.3 ± 0.0	1 ± 0	22 ± 0	1500 mg/kg	significantly suppress EAE	8% (1/12) *	equally active; also recorded: completely blocked EAE	temporary mild skin irritation	Acute dermal toxicity LD50 (rabbits): > 5000 mg/kg; Body weight at three doses [1]: increased the body weight; also recorded: significantly different from control; Effectiveness when applied less frequently than each day (EAE mice; homosalate 1.5 g/kg topically (FIGS. 8C and 8D)): effectiveness diminished; Mean EAE score, applied every day and every 2-day (EAE mice; homosalate 30 μl or 1.5 g/kg topically (FIGS. 8C and 8D), p<0.05): significantly lower than control; Dose dependence of EAE suppression (EAE mice): dose-dependent suppression of EAE; also recorded: dose dependent suppression of EAE; Suppression of EAE (mean clinical score) by sunscreen ingredients (EAE mice; listed as homosalate): dramatically suppress EAE development; also recorded: provide the protection; also recorded: dramatically suppressed EAE severity; also recorded: complete suppression of EAE; also recorded: almost completely prevented EAE development; Anti-inflammatory effect (ear edema): demonstrated
COc1ccc(C(=O)c2ccccc2)c(O)c1 [oxybenzone, reference compound]	no significant change in body weight					partially suppress EAE severity; also recorded: little to no significant suppression of EAE; also recorded: fail to suppress EAE; also recorded: slightly suppressed disease progression				
